Experimental data from patent publication US7816387B2, “β secretase inhibitor” (Dainippon Sumitomo Pharma Co., Ltd., priority 2005, dated 2010).

Tested on: Human Neuroblastoma IMR-32 Cell
Test: Inhibition of production and secretion of Aβ in IMR-32 cells (ELISA of Aβ)
Format: cell-based
Conditions: 24 hours incubation, Aβ in supernatant by ELISA
Procedure: 1) Incubation of IMR-32 Cell
IMR-32 cells (American Type Culture Collection Inc.) were seeded to 35 mmφPetri dish (FALCON Ltd.) at 37° C. for 2 to 3 days at 1.5×10^5 cells/petri dish. A DMSO solution containing test compound was dissolved in a 0.2% bovine serum albumin (Sigma Inc.)/Dulbecco's modified Eagle medium (Sigma Inc.), and a 1 mL of the mixture was added to the above Petri dish and the mixture was incubated for additional 24 hours. A 0.2% bovine serum albumin/Dulbecco's modified Eagle medium without the test compound was used as a control. The supernatant was collected and centrifuged at 5000 rpm for 5 minutes to precipitate a suspension cell. After centrifugation, the supernatant was used as a measurement sample of Aβ.
(2) Determination by Enzyme-Linked Immunoassay (ELISA) of Aβ
To a maxi sorp 96 well plate (Nunc Inc.) was added 50 μL portions of 4G8 antibody (Sigma Inc.) dissolved in 0.1M carbonate buffer (pH 9.5) and the mixture was allowed to stand at 4° C. overnight. […] After washing three times with PBST, color was developed by TMB substrate kit (Pias Inc.) and the calorimetric method (measured wavelength: 450 nm) was determined by a plate reader (ELx 808, BIO-TEK INSTRUMENTS Inc.).

C[C@@H](NC(=O)c1cc(C(=O)N[C@@H](Cc2ccccc2)[C@@H](O)C(=O)Nc2ncc[nH]2)cc(N(C)S(C)(=O)=O)c1)c1ccccc1 [Example 1, N-[(1S,2R)-1-Benzyl-2-hydroxy-3-(1H-imidazol-2-ylamino)-3-oxopropyl]-5-[methyl(methylsulfonyl)amino]-N′-[(1R)-1-phenylethyl]isophthalamide]
IC50: 200 nM
